Measured values from patent US9440914B2, “Method for treating glioblastomas and other tumors” (THE FEINSTEIN INSTITUTE FOR MEDICAL RESEARCH, priority 2013, dated 2016).

Legend:
GL261 cells [1] = experiment: serum-stimulated GL261 invasion (transwell, BME); format: cell-based, murine; details: 10 μM; 10% FBS in bottom well, 48 h
Experimental: FIG. 1A-1C. Semapimod inhibits microglia-stimulated glioblastoma invasion in vitro. (A) Semapimod inhibits microglia-stimulated glioblastoma cell invasion. GL261 cells were embedded in basement membrane extract (BME) with or without microglia in the presence of the indicated concentrations of semapimod, layered in the transwell and incubated for 48 h. The number of invading GL261 cells was determined. Data shown represent the average+/−SEM of 3 independent experiments, performed in duplicate. […] GL261 cells embedded in BME in the presence of the indicated concentration of semapimod, were layered in the transwell and incubated for 48 h. Serum (10% FBS) was added to the bottom well. The number of invading GL261 cells was determined. Data shown represent the average+/−SEM of 3 independent experiments. (C) Semapimod inhibits glioblastoma cell-stimulated microglia invasion. Glioblastoma cells were plated in the bottom well and microglia were embedded in BME in the presence or absence of 200 nM semapimod, layered in the transwell and incubated for 48 h. […]
Invasion Assays: Glioblastoma and microglial cells were labelled with cell tracker green CMFDA and with cell tracker red CMTPX, respectively, and then embedded in 50 μL of 10 mg/mL basement membrane extract (BME) (Trevigen). […] All invaded cells were counted.

GL261 cells [2] = experiment: proliferation assay of GL261 co-cultured with microglia (SRB); format: cell-based, murine; details: 200 nM, 3 days
Experimental: Proliferation Assay: 50,000 GL261 cells were cultured overnight in the absence or presence or microglia (50,000 or 150,000) in serum-containing medium and subsequently cultured in the presence or absence of 200 nM semapimod in a 6-well dish in serum-free conditions. Microglia were added in a ratio of 1:1 or 1:3 GL261:microglia. After 72 h of incubation, plates were washed in PBS and fixed in 3.7% formaldehyde in PBS. In initial experiments, the microglia were stained with tomato lectin for 45 mins and stained all nuclei with DAPI. Ten fluorescence micrographs of each culture were taken with a Zeiss Axiovert-based imaging system. […] Therefore in subsequent experiments the cells were stained with SRB as described for the colony formation assay. After drying, the plates were de-stained with 500 μL of 10 mM Tris base (Sigma). Eluted SRB was measured by absorbance at 490 nm.

SK-NEP1 human ES cells = experiment: metastatic Ewing's Sarcoma mouse model (SK-NEP1 implanted into kidney); format: in vivo, athymic mice
Experimental: FIG. 8A-8B. CNI-1493 decreases primary tumor size and metastatic burden in a metastatic Ewing's Sarcoma mouse model. 10^6 SK-ENP1 cells were implanted into the kidneys of nude mice and intraperitoneal treatment with CNI-1493 (5 mg/kg/day) or vehicle was initiated one week later. After six weeks of treatment, mice were sacrificed and assessed for primary and metastatic tumor burden. […] Metastatic tumor burden was evaluated with hematoxylin and eosin stained tissue sections by microscopy and calculating surface area per tissue section per mouse using ImageJ software (B).
(§1) In vivo, human ES cells (SK-NEP1) were surgically implanted into the left kidney of athymic mice. Mice were treated for 7 weeks with CNI-1493 or vehicle. Lung parenchyma was assessed for metastases utilizing both H&E and immunohistochemistry for the ES-specific CD99 and endothelial-specific CD31 markers. In vitro, primary macrophages isolated from human blood were polarized to M1 or M2 phenotypes by exposure to GM-CSF or M-CSF and activated with IFN-γ and LPS or IL-4. Cells were co-cultured with polarized macrophages and underwent proliferation and invasion assays in the presence or absence of CNI-1493.

ES cells (SK-NEP1) = experiment: proliferation assay of ES cells co-cultured with polarized macrophages; format: cell-based, human; details: co-culture with polarized macrophages
Experimental: as §1

[3] = test system: GL261 cells with microglia; experiment: concentration dependence on microglia-stimulated invasion of glioma cells (24-well transwell); format: cell-based; details: GL261 3×10^5, microglia 1.5×10^5, 48 h
Experimental: FIG. 11. […] GL261 cells (3×10^5) and microglia (1.5×10^5) were embedded in 50 μl of basement membrane extract in the presence of the indicated concentrations of semapimod (SMP) and CP1213, layered in a 24-well transwell and incubated for 48 h. The number of invading GL261 cells was determined. Data shown represent the average+/−SD of between 2 and 5 independent experiments, each performed in duplicate.
The concentration dependence of the inhibitory effect of semapimod or CP1213 was investigated on microglia-stimulated invasion of glioma cells. GL261 cells (3×10^5) and microglia (1.5×10^5) were embedded in 50 μl of basement membrane extract in the presence of the indicated concentrations of semapimod (SMP) and CP1213, layered in a 24-well transwell and incubated for 48 h. The number of invading GL261 cells was determined. Data are shown in FIG. 11 and represent the average+/−SD of between 2 and 5 independent experiments, each performed in duplicate. The data support a method of treating a glioma, by inhibiting microglia-stimulated invasion processes with guanylhydrazones.

[4] = phase II clinical trial for Crohn's disease; cited from earlier work

C/C(=N\NC(=N)N)c1cc(NC(=O)CCCCCCCCC(=O)Nc2cc(/C(C)=N/NC(=N)N)cc(/C(C)=N/NC(=N)N)c2)cc(/C(C)=N/NC(=N)N)c1 [semapimod]
effect on serum-stimulated GL261 invasion (GL261 cells [1]): does not affect
effect on microglia-stimulated glioblastoma cell proliferation (GL261 cells [2]): does not affect
primary tumor size (effect in words) (SK-NEP1 human ES cells; intraperitoneal 5 mg/kg/day): significantly reduce
incidence of metastatic disease (SK-NEP1 human ES cells; intraperitoneal 5 mg/kg/day, p=0.055): 21%
lung metastases by immunohistochemistry (SK-NEP1 human ES cells; lung tissue, CD99/CD31): micrometastases confined to the vasculature
overall metastatic tumor burden (SK-NEP1 human ES cells; treated 7 weeks, versus vehicle, p<0.05): significantly decreased
primary tumor size (SK-NEP1 human ES cells; treated 7 weeks, control 7.0±5.2 g, p=0.54, not affected): 5.7 ± 3.3 g
effect on ES cellular proliferation (ES cells (SK-NEP1)): unaffected
effect on microglia-stimulated invasion of GL261 glioma cells (concentration dependence) [3]: inhibitory effects
tolerability in humans [4]: very well tolerated
